Values of other authors, collected in patent publication US20240317846A1 (priority 2021, published 2024).

How the values were obtained:
[1] = test system: COVID-19; conditions: cited from earlier work
[2] = test system: COVID-19; conditions: non-significant trend; cited from earlier work

Substance	Subjects alive and free of respiratory failure at 28 days ([1]; pre-planned analysis, subjects aged at least 70 years, standard of care 45.9%)	Primary endpoint (proportion alive and free of respiratory failure 28 days) ([1]; whole population)	Improvement in survival without requirement for supplemental oxygen [2]
Otilimab: monoclonal antibody targeting circulating GM-CSF	65.1%	not meet its primary endpoint	–
Mavrilimumab: monoclonal antibody that acts as a GM-CSF alpha-receptor antagonist	–	–	48%
